Reference: publication PMC7828111, “In Search for Multi-Target Ligands as Potential Agents for Diabetes Mellitus and Its Complications—A Structure-Activity Relationship Study on Inhibitors of Aldose Reductase and Protein Tyrosine Phosphatase 1B” (Molecules, 2021)
Where two headings read alike, the source gives them in different places.

Key:
[1] = target: T1, human recombinant PTP1B (Homo sapiens, UniProt P18031); set-up: method as in PMID 30342956; details: reversible inhibitors; cited from earlier work
T1 sequence (P18031 1-435): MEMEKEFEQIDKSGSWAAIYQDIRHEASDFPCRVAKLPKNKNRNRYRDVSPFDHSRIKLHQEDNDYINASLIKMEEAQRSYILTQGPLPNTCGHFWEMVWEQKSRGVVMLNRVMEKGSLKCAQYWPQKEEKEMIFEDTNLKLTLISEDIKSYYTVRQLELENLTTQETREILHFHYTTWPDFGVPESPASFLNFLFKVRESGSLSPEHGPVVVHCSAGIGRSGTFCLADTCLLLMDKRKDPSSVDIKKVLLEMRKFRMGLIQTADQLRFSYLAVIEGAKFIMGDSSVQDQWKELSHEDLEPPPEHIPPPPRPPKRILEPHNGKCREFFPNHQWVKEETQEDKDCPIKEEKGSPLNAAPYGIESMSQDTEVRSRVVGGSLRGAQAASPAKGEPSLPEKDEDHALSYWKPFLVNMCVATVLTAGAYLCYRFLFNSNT

[2] = target: T2, human recombinant AR (Homo sapiens, UniProt P15121); set-up: method as in PMID 30342956; details: reversible inhibitors; cited from earlier work
T2 construct: made in house; host or cells: E. coli BL21(DE3)pLysS

[3] = target: T2, human recombinant AR; assay: Reversibility of AR inhibition (dialysis); type: biochemical
Description: In order to evaluate the reversibility of the inhibitory action, 8 mU of purified AR were assayed in the presence of 5 μM of compounds 4a, 4e and 4f. In these conditions less than 15% of the enzyme activity was measured in the presence of 2 mM L-idose as substrate. The mixture was then extensively dialysed on Amicon ultrafiltration membrane (cut off 10 KDa) against 10 mM sodium phosphate buffer, pH 7.0. After dialysis, the enzyme activity was again measured as above and compared to that of a mixture in the absence of inhibitor and treated in the same conditions.

[4] = target: T1, human recombinant PTP1B; assay: Reversibility assay (dilution test) with PTP1B; type: biochemical; details: saturating inhibitor, 60 min 37 °C, diluted 400 folds
Description: An aliquot of the enzyme was incubated for 60 min at 37 °C in the presence of saturating amount of PTP1B inhibitor. After this time, an aliquot of the enzyme was withdrawn and diluted 400 folds in the assay buffer containing 2.5 mM of pNPP. After 15 min, the reaction was stopped by adding 1 mL of KOH 0.2 M. The amount of pNP released was calculating measuring the absorbance at 400 nm of solutions using a spectrophotometer. Data obtained were normalized respect to control tests, which was carried out diluting the enzyme with DMSO, the solvent used to dissolve all compounds. Data reported in the figure represent the mean value +/− S.E.M. (n = 3).

[5] = target: T2, human recombinant AR; assay: Inhibition of human recombinant AR, L-idose as substrate (NADPH oxidation at 340 nm); type: biochemical; details: human recombinant AR, 2 mM L-idose as substrate; mean ± S.E.M
Description: The human recombinant AR was expressed in BL21(DE3)pLysS E. coli cells and purified to electrophoretic homogeneity as previously described. The purified enzyme (specific activity 5.0 U/mg) was stored at −80 °C in 10 mM sodium phosphate buffer pH 7.0 containing 2 mM dithiothreitol and 30% (w/v) glycerol. AR activity was determined at 37 °C as previously described evaluating the decrease in absorbance at 340 nm linked to NADPH oxidation. […] One unit of enzyme activity is the amount that catalyzes the conversion of 1 μmol of substrate/min in the above assay conditions.
All compounds tested as aldose reductase inhibitors were dissolved in DMSO and added to the assay mixture containing 8 mU of purified AR. The reaction was started by addition of the substrate. The DMSO concentration in all the assays was kept constant at 0.5% (v/v) in order to avoid effects on AR activity.
The IC50 values were determined by nonlinear regression analysis using Prism GraphPad 6.0 fitting experimental data to the following equation:(1) vi/v0= Max−Min/1+( I/IC50)^slope +Min
In the equation, vi/v0, represents the ratio between the activity measured in the presence of the inhibitor and the activity measured in the absence of inhibitor; Max and Min represent the expected maximal and minimal value of the activity and were fixed at 1 and zero, respectively. Slope, which describes the steepness of curve in the transition region, was fixed at −1. For each compound, at least five different concentrations of inhibitor in the triplicate assay were analyzed.

[6] = target: T1, human recombinant PTP1B; assay: Kinetic analysis of PTP1B inhibition (Lineweaver-Burk plot); type: biochemical; details: pNPP as substrate
Description: Kinetic analyses were carried out to dissect action mechanism of compound 4e and 4f. Briefly, the main kinetic parameters, Km and Vmax, were calculated measuring the initial hydrolysis rate of PTP1B in the presence of increasing pNPP concentration (seven different concentrations in the 0.5–25 mM range). All assays were carried out in duplicate. Data obtained were fitted using the Michaelis-Menten equation. To evaluate the action mechanism of inhibitors, we studied the dependence of Km and Vmax from inhibitors concentration, using three different inhibitor concentrations, at least. Data obtained were then analysed by double reciprocal plot (Lineweaver-Burk plot).

[7] = target: T1, human recombinant PTP1B; assay: Inhibition of human recombinant PTP1B, p-nitrophenyl phosphate as substrate; type: biochemical; details: human recombinant PTP1B, pNPP as substrate; mean ± S.E.M
Description: PTP1B activity was determined as follow. […] After an appropriate interval time, the reaction was stopped diluting assay solution with 2 mL of KOH 0.1 M. The amount of p-nitrophenol released was determined measuring the absorbance of the solution at 400 nm using a spectrophotometer and a 1-cm optical pathlength (εmM of p-nitrophenol is 18). The IC50 value was determined measuring the pNPP hydrolysis rate in the presence of increasing inhibitor concentration. For each inhibitor, 15–16 different concentrations were used. All tests were carried out in triplicate and data obtained were normalized respect to control sample.

[8] = target: T2, human recombinant AR; assay: Kinetic analysis of AR inhibition (Lineweaver-Burk and secondary plots); type: biochemical
Description: The kinetic analysis of compounds 4a, 4e and 4f was performed by measuring reaction rates with different L-idose concentrations s (S) in the absence and in the presence of different inhibitors concentrations. Data were analyzed by Linewever-Burk plots.

melting point [°C] | AR enzyme activity recovered after removal of the inhibitor upon extensive dialysis ([3]; 5 μM compound before dialysis) | AR enzyme activity measured in the presence of compound ([3]; 5 μM compound, 2 mM L-idose, before dialysis) | Reversibility of PTP1B inhibition [4] | IC50 [5] [nM] | Mechanism of PTP1B inhibition [6] | PTP1B K′i (apparent dissociation constant, EIS complex) [6] [µM] | Ki ([6]; read-out: PTP1B Ki (apparent dissociation constant)) [nM] | IC50 [7] [nM] | AR Ki relative to K′i ([8]; Ki higher than K′i) | AR K′i (apparent dissociation constant, EIS complex) ([8]; L-idose as substrate) [µM] | Mechanism of AR inhibition ([8]; L-idose as substrate) | Ki ([8]; L-idose as substrate, read-out: AR Ki (apparent dissociation constant)) [nM] | SMILES | Mechanism of PTP1B inhibition [1] | Mechanism of AR inhibition [2]
 |  |  |  |  |  |  |  |  |  |  |  |  | O=C(O)CN1C(=O)S/C(=C\c2cccc(OCCc3ccccc3)c2)C1=O [1e] | non-competitive | uncompetitive
 |  |  |  |  |  |  |  |  |  |  |  |  | O=C(O)CN1C(=O)/C(=C/c2cccc(OCCc3ccccc3)c2)SC1=S [2e, (4-oxo-5-{[3-(2-phenylethoxy)pheny]lmethylidene}-2-thioxothiazolidin-3-yl)acetic acid] | non-competitive | uncompetitive
136 to 138 | more than 90% | less than 15% | reversible inhibitors | 2300 ± 100 | competitive inhibitor | >12 | 2200 ± 300 | 55500 ± 800 | at least ten-fold higher | 0.66 ± 0.30 | uncompetitive inhibitors | > 8000 | O=C(O)CCN1C(=O)/C(=C/c2cccc(OCCc3ccccc3)c2)SC1=S [4e, 3-[(5Z)-4-Oxo-{5-[3-(2-phenylethoxy)phenyl]methylidene}-2-thioxothiazolidin-3-yl]propanoic acid] |  | 
